# Source: patent US12370203B2, “Pharmaceutical compositions and methods of making on demand solid dosage formulations” (Eastern Virginia Medical School, priority 2018, dated 2025)
# Where a name gives a salt, the structure may show the parent alone.
# Tests used:
# HSV = experiment: Anti-HSV activity of tenofovir prodrugs; assay type: cell-based
# HIV = experiment: Cervical vaginal (CV) tissue explant HIV infection (p24 production, AUC); assay type: cell-based
# Source text: FIGS. 1A, 1B and 1C show EVG dose response plots on p24 production.
# [1] = EVG concentration in CV tissues; assay type: in vitro ADME
# Experimental: FIG. 2 is a graph showing EVG concentrations in infected vs. not infected CV tissues. Median concentrations and ranges (min and max) are shown. PA=Protein adjusted. […] Based on the data, it can be extrapolated that EVG tissue concentrations of >1000 ng/g provided 100% HIV prophylaxis. (FIG. 2).
smiles,measurement,setting,value
"CC(C)OC(=O)[C@H](C)N[P@](=O)(CO[C@H](C)Cn1cnc2c(N)ncnc21)Oc1ccccc1 [TAF, tenofovir alafenamide fumarate]",activity against HSV,HSV,most potent
"CC(C)OC(=O)OCOP(=O)(CO[C@H](C)Cn1cnc2c(N)ncnc21)OCOC(=O)OC(C)C [TDF, tenofovir disoproxil fumarate]",activity against HSV,HSV,improved activity against HSV
"Nc1nc2c(ncn2COCCO)c(=O)[nH]1 [acyclovir (ACV), acyclovir]",activity against HSV,HSV,improved activity against HSV
"COc1cc2c(cc1Cc1cccc(Cl)c1F)c(=O)c(C(=O)O)cn2[C@H](CO)C(C)C [EVG, elvitegravir]",% protection of mean AUC versus HIV control,"HIV; Co-exposure, virus and EVG added together, EVG 0.1 μg/ml",97.56%
same,% protection of mean AUC versus HIV control,"HIV; Co-exposure, virus and EVG added together, EVG 1 μg/ml",100%
same,% protection of mean AUC versus HIV control,"HIV; Post-exposure 4 h, EVG 0.1 μg/ml",86%
same,% protection of mean AUC versus HIV control,"HIV; Post-exposure 4 h, EVG 1 μg/ml",99.56%
same,% protection of mean AUC versus HIV control,"HIV; Post-exposure 4 h, EVG 10 μg/ml",100%
same,% protection of mean AUC versus HIV control,"HIV; Post-exposure 9 h, EVG 0.1 μg/ml",85.85%
same,% protection of mean AUC versus HIV control,"HIV; Post-exposure 9 h, EVG 1 μg/ml",100%
same,% protection of mean AUC versus HIV control,"HIV; Post-exposure 9 h, EVG 10 μg/ml",100%
same,% protection of mean AUC versus HIV control,"HIV; Post-exposure 14 h, EVG 10 μg/ml",100%
same,% protection of mean AUC versus HIV control,"HIV; Post-exposure 24 h, EVG 10 μg/ml",100%
same,% protection of mean AUC versus HIV control,"HIV; Pre-exposure 0 h, EVG 0.1 μg/ml",34.5%
same,% protection of mean AUC versus HIV control,"HIV; Pre-exposure 0 h, EVG 1 μg/ml",99.97%
same,% protection of mean AUC versus HIV control,"HIV; Pre-exposure 0 h, EVG 10 μg/ml",100%
same,% protection of mean AUC versus HIV control,"HIV; Pre-exposure 7 h, EVG 0.1 μg/ml",21.53%
same,% protection of mean AUC versus HIV control,"HIV; Pre-exposure 7 h, EVG 1 μg/ml",99.1%
same,% protection of mean AUC versus HIV control,"HIV; Pre-exposure 7 h, EVG 10 μg/ml",100%
same,% protection of mean AUC versus HIV control,"HIV; Pre-exposure 24 h, EVG 0.1 μg/ml",44.8%
same,% protection of mean AUC versus HIV control,"HIV; Pre-exposure 24 h, EVG 1 μg/ml",99.51%
same,% protection of mean AUC versus HIV control,"HIV; Pre-exposure 24 h, EVG 10 μg/ml",100%
same,EVG tissue concentration that provided 100% HIV prophylaxis,[1]; extrapolated from CV tissue data,> 1000 ng/g
same,median EVG concentration in CV tissues,[1]; following 4 h of exposure to 1 μg/ml of EVG,1150 ng/g
same,median EVG concentration in CV tissues,[1]; following 4 h of exposure to 10 μg/ml of EVG,"13,381 ng/g"
"C[C@H](Cn1cnc2c(N)ncnc21)OCP(=O)(O)O [TFV, tenofovir]",activity against HSV,HSV,improved activity against HSV
